Consider one compound from paper PMC6100044 (Molecules : A Journal of Synthetic Chemistry and Natural …, 2018).

A word on the IC50: it is the concentration that gives 50% inhibition.

The subject of data set [1] is P. falciparum CQ-resistant W-2. The data set can be described thus: In vitro antimalarial assay (pLDH), Pf W-2 strain. In kind it is cell-based, Plasmodium falciparum. The method, then: (§1) Compounds were dissolved in either water or DMSO and then diluted with medium to achieve the required concentrations (final DMSO concentration <1%, which is non-toxic to the parasite). […] Parasite growth was determined spectrophotometrically (OD650) by measuring the activity of the parasite lactate dehydrogenase (pLDH) according to a modification of the method of Makler in control and drug-treated cultures.
(§2) As a blank, uninfected RBCs were used for the antimalarial assays or media without cells for the cytotoxicity assays. The percent viability was plotted as a function of drug concentrations, and the curve fitting was obtained by nonlinear regression analysis using a four parameter logistic method (software Gen5 1.10 provided with the Synergy4 plate reader [Biotek]).

The subject of data set [2] is Pf. Conditions: fold more active; cited from earlier work.
On the set-up of data set [3]: method as in earlier work. Conditions: 28 (artemisone), 29 (DHA); cited from earlier work.
Data set [4] relates to fresh human dermal fibroblasts HDF. Put plainly: Cytotoxicity, MTT assay, HDF. In kind it is cell-based. Conditions: Fibroblast, MTT assay conducted for 72 h, read-out: Mean (±S.D.) IC50 HDF. The method, then:
(§3) Selected compounds were carried forward for screening against the immortalized myelogenous leukemia, K562, human microvascular endothelial cells (HMEC-1) and fresh human fibroblasts HDF (Table 2) using the MTT assay, as above.
(§4) A long term microvascular endothelial cell line (HMEC-1) immortalized by SV 40 large T antigen was kindly provided by Dr. Francisco J. Candal, Center for Disease Control, Atlanta, GA, USA. […] Fibroblasts from skin biopsies were maintained in DMEM (EuroClone, Pero, Italy) supplemented with 10% fetal calf serum (HyClone, Logan, UT, USA), 2 mM glutamine, 100 U/mL of penicillin and 100 µg/mL of streptomycin.
(§5) Cells were then treated with serial dilutions of test compounds and cell proliferation evaluated using the MTT assay as previously described. […] All the tests were performed in triplicate at least three times.
as §2

Data set [5] concerns mouse fibrosarcoma cell line WEHI-164. The data set can be described thus: Cytotoxicity, MTT assay, WEHI-164. In kind it is cell-based. As to conditions: Mus musculus, WEHI-164, 72 h, MTT, 72 h; read-out: WEHI-164 Mean ± S.D. IC50.
The subject of data set [6] is different strains of Plasmodium falciparum (Pf). The data set can be described thus: In vitro antimalarial assay (pLDH), summary over different Pf strains. The class given is cell-based. Conditions: Plasmodium falciparum; range over D10 and W-2 strains; read-out: IC50 against different strains of Plasmodium falciparum. The method, then: as §1, §2
For data set [7] the following is noted: fold more active; cited from earlier work.
Data set [8] relates to myelogenous leukemia cell line K562. The data set can be described thus: Cytotoxicity, MTT assay, K562. The class given is cell-based, human. As to conditions: Homo sapiens, K562; MTT assay conducted for 72 h; read-out: Mean (±S.D.) IC50 K562. The method, then:
as §3, §4, §5, §2
In general terms: Formazan colour is commonly taken as a measure of viable cells.

Data set [9] concerns P. falciparum CQ-sensitive D10. The data set can be described thus: In vitro antimalarial assay (pLDH), Pf D10 strain. In kind it is cell-based, Plasmodium falciparum. The method, then: as §1, §2
The conditions of data set [10]: cited from earlier work.

Take `C[C@H]1[C@H](N2CCS(=O)(=O)CC2)O[C@@H]2O[C@@]3(C)CC[C@H]4[C@H](C)CC[C@@H]1[C@@]24OO3` [Artemisone 7, artemisone, reference compound]: the half-maximal inhibitory concentration (IC50) in [1] (Plasmodium falciparum, 72 h, CQ-resistant strain, 72 h, pLDH readout, read-out: W-2 (CQ-R) Mean ± S.D. IC50) was 0.9 ± 0.4 nM; in [4], 88300 ± 33800 nM; in data set [5], 296 ± 59 nM; in [6] it was 0.9 to 1.1 nM; in data set [8], 260 ± 40 nM; in data set [9] (Plasmodium falciparum, D10, 72 h, CQ-sensitive strain, 72 h, pLDH readout, read-out: D10 (CQ-S) Mean ± S.D. IC50) it was 1.1 ± 0.4 nM. The “Ratio IC50 cpd/IC50 DHA” value is listed as 0.6 in data set [1] (W-2 strain) and 0.32 in data set [9] (D10 strain). Also, the “SI IC50WEHI-164/IC50 cpd” value in data set [1] (selectivity index versus W-2 strain) is 328; in data set [9] (selectivity index versus D10 strain), 269. The “activity relative to artesunate 4 against Pf in vitro” value in data set [2] was “nine-fold”. Also, the elimination half-life in data set [3] was ~ 3 h. The plasma clearance in data set [3] was ~ 3.5 L/h/kg. For the same compound, in data set [3], the volume of distribution was 14.5 L/kg. The “activity relative to artesunate 4 in vivo” value in data set [7] is “at least three-fold”. Besides, the “neurotoxicity in vitro and in vivo” value in [10] is reported as “negligible neurotoxicity”.
